According to patent US20140107109A1, “AMINO-DIHYDROTHIAZINE AND AMINO-DIOXIDO DIHYDROTHIAZINE COMPOUNDS AS BETA-SECRETASE ANTAGONISTS AND METHODS OF USE” (Amgen Inc., priority 2012, published 2014):

Assays:
[1] = molecular target: Beta Secretase enzyme (BACE1) (Homo sapiens, UniProt P56817); assay: In vitro enzymatic BACE FRET assay; assay type: biochemical; settings: average IC50, enzyme assay; read-out: BACE1 FRET assay IC50
In short: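 BACE1 cleavage of a 50 nM fluorophore/quencher peptide FRET substrate ran for one hour in 0.05 M acetate pH 4.2, 10% DMSO, 100 uM genapol. Tris buffer raised pH to neutrality to stop the reaction before fluorescence was read (excitation 488 nm, […]).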

[2] = tested on: Aβ40 in conditioned medium of cells stably expressing Amyloid Precursor Protein (APP); assay: In vitro BACE cell-based assay (HEK cell assay), Aβ40 sandwich ELISA; settings: Homo sapiens, HEK293; average IC50, HEK cell assay
In short: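 APP-stably expressing cells (40K/well, grown 24 h in DMEM/10% FBS) were treated 24 h with compounds in 10-point dose response starting at 100 μM or 10 μM, 0.1% DMSO final. Secreted Aβ40 was measured by sandwich ELISA (pAb40 capture, biotinylated 6E10 detection, europium time-resolved fluorescence); IC50 from percent inhibition.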

Cathepsin D (Cat D) = molecular target: T1, Cathepsin D (Cat D) (Homo sapiens, UniProt P07339); assay: In vitro enzymatic Cathepsin D (Cat D) FRET assay; assay type: biochemical; settings: read-out: CatD IC50
T1 construct: Recombinant Cat D was expressed in CHO cells; made in house; host or cells: CHO cells
T1 sequence (P07339 65-412, species assumed): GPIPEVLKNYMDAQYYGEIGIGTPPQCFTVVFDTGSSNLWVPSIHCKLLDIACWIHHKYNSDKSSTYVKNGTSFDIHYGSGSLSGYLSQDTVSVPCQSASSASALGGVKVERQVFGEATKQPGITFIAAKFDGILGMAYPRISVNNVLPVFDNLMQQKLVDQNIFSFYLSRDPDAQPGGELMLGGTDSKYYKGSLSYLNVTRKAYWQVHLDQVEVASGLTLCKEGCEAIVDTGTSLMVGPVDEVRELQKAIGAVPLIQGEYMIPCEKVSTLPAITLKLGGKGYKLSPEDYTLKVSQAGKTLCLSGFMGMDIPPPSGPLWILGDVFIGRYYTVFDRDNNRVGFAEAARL
In short: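 Recombinant Cat D expressed in CHO cells, used at 9 nM and pre-incubated one hour with serially diluted inhibitor in DMSO. Peptide substrate carries a fluorophore and quencher flanking the cleavage site; reaction stopped with Tris buffer raising pH to neutrality, then fluorescence read.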

Sequence of Beta Secretase enzyme (BACE1) (P56817 46-501): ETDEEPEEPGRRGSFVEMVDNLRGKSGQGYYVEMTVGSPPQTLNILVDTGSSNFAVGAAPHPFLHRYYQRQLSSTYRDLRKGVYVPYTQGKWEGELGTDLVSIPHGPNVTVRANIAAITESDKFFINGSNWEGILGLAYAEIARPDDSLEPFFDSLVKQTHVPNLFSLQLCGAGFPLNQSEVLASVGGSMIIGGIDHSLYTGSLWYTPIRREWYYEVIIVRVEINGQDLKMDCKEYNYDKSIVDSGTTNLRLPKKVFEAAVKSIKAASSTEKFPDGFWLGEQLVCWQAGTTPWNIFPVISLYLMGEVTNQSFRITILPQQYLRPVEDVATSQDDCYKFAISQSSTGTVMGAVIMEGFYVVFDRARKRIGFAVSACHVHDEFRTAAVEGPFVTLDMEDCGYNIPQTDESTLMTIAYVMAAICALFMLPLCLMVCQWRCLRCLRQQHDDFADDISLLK

| Structure (SMILES) | IC50 [1] [µM] | IC50 [2] [µM] | IC50 (Cathepsin D (Cat D)) [µM] |
| --- | --- | --- | --- |
| Cc1cc(C(F)(F)F)cc(Oc2ccc(F)c([C@]3(C)CS(=O)(=O)C(C)(C)C(N)=N3)c2)n1 [Example 298, (5R)-5-(2-fluoro-5-((6-methyl-4-(trifluoromethyl)-2-pyridinyl)oxy)phenyl)-2,2,5-trimethyl-5,6-dihydro-2H-1,4-thiazin-3-amine 1,1-dioxide] | 0.106 | 0.737 | 547 |
| CC1(C)C(N)=N[C@](C)(c2cc(Oc3ncc(Cl)cc3Cl)ccc2F)CS1(=O)=O [Example 299, (5R)-5-(5-((3,5-dichloro-2-pyridinyl)oxy)-2-fluorophenyl)-2,2,5-trimethyl-5,6-dihydro-2H-1,4-thiazin-3-amine 1,1-dioxide] | 0.174 | 0.796 | 82.4 |
| CC1(C)C(N)=N[C@](C)(c2cc(Oc3ncc(C(N)=O)cc3F)ccc2F)CS1(=O)=O [Example 300, 6-(3-((3R)-5-amino-3,6,6-trimethyl 1,1-dioxido-3,6-dihydro-2H-1,4-thiazin-3-yl)-4-fluorophenoxy)-5-fluoro-3-pyridinecarboxamide] | 0.897 | 1.18 | 717 |
| Cc1nc2c(Oc3ccc(F)c([C@]4(C)CS(=O)(=O)C(C)(C)C(N)=N4)c3)nccc2s1 [Example 302, (5R)-5-(2-fluoro-5-((2-methyl[1,3]thiazolo[4,5-c]pyridin-4-yl)oxy)phenyl)-2,2,5-trimethyl-5,6-dihydro-2H-1,4-thiazin-3-amine 1,1-dioxide] | 3.49 | 2.87 | 241 |
| COc1cnc2c(Oc3ccc(F)c([C@]4(C)CS(=O)(=O)C(C)(C)C(N)=N4)c3)nccc2n1 [Example 303, (5R)-5-(2-fluoro-5-((2-methoxypyrido[3,4-b]pyrazin-5-yl)oxy)phenyl)-2,2,5-trimethyl-5,6-dihydro-2H-1,4-thiazin-3-amine 1,1-dioxide] | 1.22 | 2.54 | 1000 |
| CC1(C)C(N)=N[C@](C)(c2cc(Oc3nccc4cc(Cl)cnc34)ccc2F)CS1(=O)=O [Example 304, (5R)-5-(5-((3-chloro-1,7-naphthyridin-8-yl)oxy)-2-fluorophenyl)-2,2,5-trimethyl-5,6-dihydro-2H-1,4-thiazin-3-amine 1,1-dioxide] | 0.127 | 0.198 | 282 |
| CC1(C)C(N)=N[C@](C)(c2cc(Oc3ncccc3C#N)ccc2F)CS1(=O)=O [Example 306, 2-(3-((3R)-5-amino-3,6,6-trimethyl-1,1-dioxido-3,6-dihydro-2H-1,4-thiazin-3-yl)-4-fluorophenoxy)-3-pyridinecarbonitrile] | 0.256 | 0.241 | 218 |
| CC1(C)C(N)=N[C@](C)(c2cc(Oc3nccc(C#N)c3Cl)ccc2F)CS1(=O)=O [Example 307, 2-(3-((3R)-5-amino-3,6,6-trimethyl-1,1-dioxido-3,6-dihydro-2H-1,4-thiazin-3-yl)-4-fluorophenoxy)-3-chloro-4-pyridinecarbonitrile] | 0.168 | 0.258 | 298 |
| CC1(C)C(N)=N[C@](C)(c2cc(Oc3c(C#N)ccnc3Cl)ccc2F)CS1(=O)=O [Example 308, 3-(3-((3R)-5-amino-3,6,6-trimethyl-1,1-dioxido-3,6-dihydro-2H-1,4-thiazin-3-yl)-4-fluorophenoxy)-2-chloro-4-pyridinecarbonitrile] | 4.16 | 3.27 | 224 |
| COc1ccnc(Oc2ccc(F)c([C@]3(C)CS(=O)(=O)C(C)(C)C(N)=N3)c2)n1 [Example 309, (5R)-5-(2-fluoro-5-((4-methoxy-2-pyrimidinyl)oxy)phenyl)-2,2,5-trimethyl-5,6-dihydro-2H-1,4-thiazin-3-amine 1,1-dioxide] | 0.101 | 0.0751 | 274 |
| Cc1ccnc(Oc2ccc(F)c([C@]3(C)CS(=O)(=O)C(C)(C)C(N)=N3)c2)c1C#N [Example 310, 2-(3-((3R)-5-amino-3,6,6-trimethyl-1,1-dioxido-3,6-dihydro-2H-1,4-thiazin-3-yl)-4-fluorophenoxy)-4-methyl-3-pyridinecarbonitrile] | 1.34 | 0.931 | 444 |
| Cc1c(C(F)(F)F)ccnc1Oc1ccc(F)c([C@]2(C)CS(=O)(=O)C(C)(C)C(N)=N2)c1 [Example 311, (5R)-5-(2-fluoro-5-((3-methyl-4-(trifluoromethyl)-2-pyridinyl)oxy)phenyl)-2,2,5-trimethyl-5,6-dihydro-2H-1,4-thiazin-3-amine 1,1-dioxide] | 2.57 | 2.39 | 401 |
| CC1(C)C(N)=N[C@](C)(c2cc(Oc3nccc(C(F)(F)F)c3C#N)ccc2F)CS1(=O)=O [Example 312, 2-(3-((3R)-5-amino-3,6,6-trimethyl-1,1-dioxido-3,6-dihydro-2H-1,4-thiazin-3-yl)-4-fluorophenoxy)-4-(trifluoromethyl)-3-pyridinecarbonitrile] | 2.89 | 1.59 | 771 |
| CC1(C)C(N)=N[C@](C)(c2cc(NC(=O)c3cnc(C(F)F)cn3)ccc2F)CS1(=O)=O [Example 313, N-(3-((3R)-5-amino-3,6,6-trimethyl-1,1-dioxido-3,6-dihydro-2H-1,4-thiazin-3-yl)-4-fluorophenyl)-5-(difluoromethyl)-2-pyrazinecarboxamide] | 0.00292 | 0.0063 | 887 |
| CC1(C)C(N)=N[C@](C)(c2cc(NC(=O)c3cnc(OCC(F)F)cn3)ccc2F)CS1(=O)=O [Example 314, N-(3-((3R)-5-amino-3,6,6-trimethyl-1,1-dioxido-3,6-dihydro-2H-1,4-thiazin-3-yl)-4-fluorophenyl)-5-(2,2-difluoroethoxy)-2-pyrazinecarboxamide] | 0.00058 | 0.005 | 504 |
| CC1(C)C(N)=N[C@](C)(c2cc(NC(=O)c3ccc4ccccc4n3)ccc2F)CS1(=O)=O [Example 315, N-(3-((3R)-5-amino-3,6,6-trimethyl-1,1-dioxido-3,6-dihydro-2H-1,4-thiazin-3-yl)-4-fluorophenyl)-2-quinolinecarboxamide] | 0.0376 | 0.0253 | 253 |
| CC1(C)C(N)=N[C@](C)(c2cc(NC(=O)c3cnc4ccccc4n3)ccc2F)CS1(=O)=O [Example 316, N-(3-((3R)-5-amino-3,6,6-trimethyl-1,1-dioxido-3,6-dihydro-2H-1,4-thiazin-3-yl)-4-fluorophenyl)-2-quinoxalinecarboxamide] | 0.0412 | 0.018 | 36.6 |
| CC#CCOc1cnc(C(=O)Nc2ccc(F)c([C@]3(C)CS(=O)(=O)[C@@](C)(F)C(N)=N3)c2)cn1 [Example 317, N-(3-((3R,6R)-5-amino-6-fluoro-3,6-dimethyl-1,1-dioxido-3,6-dihydro-2H-1,4-thiazin-3-yl)-4-fluorophenyl)-5-(2-butyn-1-yloxy)-2-pyrazinecarboxamide] | 0.00021 | 0.0036 | > 133 |
| COc1ccc(C(=O)Nc2ccc(F)c([C@]3(C)CS(=O)(=O)[C@@](C)(F)C(N)=N3)c2)nc1 [Example 318, N-(3-((3R,6R)-5-amino-6-fluoro-3,6-dimethyl-1,1-dioxido-3,6-dihydro-2H-1,4-thiazin-3-yl)-4-fluorophenyl)-5-methoxy-2-pyridinecarboxamide] | 0.0018 | 0.0688 | > 400 |
| C[C@]1(F)C(N)=N[C@](C)(c2cc(NC(=O)c3ccc(C(F)F)cn3)ccc2F)CS1(=O)=O [Example 319, N-(3-((3R,6R)-5-amino-6-fluoro-3,6-dimethyl-1,1-dioxido-3,6-dihydro-2H-1,4-thiazin-3-yl)-4-fluorophenyl)-5-(difluoromethyl)-2-pyridinecarboxamide] | 0.00162 | 0.07 | > 400 |
| C[C@]1(F)C(N)=N[C@](C)(c2cc(NC(=O)c3ncc(Cl)cc3F)ccc2F)CS1(=O)=O [Example 320, N-(3-((3R,6R)-5-amino-6-fluoro-3,6-dimethyl-1,1-dioxido-3,6-dihydro-2H-1,4-thiazin-3-yl)-4-fluorophenyl)-5-chloro-3-fluoro-2-pyridinecarboxamide] | 0.0008 | 0.0789 | > 400 |
| Cc1cc(OC(F)F)cnc1C(=O)Nc1ccc(F)c([C@]2(C)CS(=O)(=O)[C@@](C)(F)C(N)=N2)c1 [Example 321, N-(3-((3R,6R)-5-amino-6-fluoro-3,6-dimethyl-1,1-dioxido-3,6-dihydro-2H-1,4-thiazin-3-yl)-4-fluorophenyl)-5-(difluoromethoxy)-3-methyl-2-pyridinecarboxamide] | 0.00072 | 0.0449 | 387 |
| C[C@]1(F)C(N)=N[C@](C)(c2cc(NC(=O)c3ccc(F)cn3)ccc2F)CS1(=O)=O [Example 322, N-(3-((3R,6R)-5-amino-6-fluoro-3,6-dimethyl-1,1-dioxido-3,6-dihydro-2H-1,4-thiazin-3-yl)-4-fluorophenyl)-5-fluoro-2-pyridinecarboxamide] | 0.00195 | 0.134 | 1220 |
